# Results: patent US7666587B2, “Method of screening test substances for treating or preventing a disease mediated by plasma cells” (priority 2002, dated 2010)
# Residues, ends and D or L forms follow the SMILES beside them. *: point of attachment. Cbz = O=C(OCc1ccccc1)*
# Assays:
# XBP-1 [1] = assay: XBP-1 immunoblot during in vitro differentiation of B-cells to plasma cells; type: cell-based; conditions: mouse spleen cells, 25 μg/ml E. coli lipopolysaccharide
# Method: (§1) Mouse embryonic fibroblasts and ES cells lacking IRE1 activity (IRE1α−/− or IRE1α, IRE1β−/−) and PERK−/−fibroblasts were cultured as previously described (Harding et al., “Regulated Translation Initiation Controls Stress-Induced Gene Expression in Mammalian Cells,” Mol. Cell 6:1099-1108 (2000); and Urano et al., “Coupling of Stress in the Endoplasmic Reticulum to Activation of JNK Protein Kinases by Transmembrane Protein Kinase IRE1,” Science 287:664-666 (2000), which are hereby incorporated by reference in their entirety). Cells were treated with tunicamycin (2.5 μg/ml, Calbiochem), thapsigargin (100 nM, Sigma), dithiothreitol (2 mM, Sigma) or the proteasome inhibitor MG132 (25 μM, Calbiochem) as indicated. […]
# (§2) XBP-1 proteins in whole cell extracts were detected by immunoblot of 9% PAGE-SDS using a rabbit polyclonal serum directed to residues 97-267 common to both 54 kDa and 33 kDa XBP-1 proteins (sc-7160, Santa Cruz Biotechnology). XBP-1 proteins in transfected cells were detected by a monoclonal antibody to the FLAG epitope tag (Kodak-IBI). CREB and CHOP were detected as described previously (Harding et al., “Regulated Translation Initiation Controls Stress-Induced Gene Expression in Mammalian Cells,” Mol. Cell 6:1099-1108 (2000), which is hereby incorporated by reference in its entirety).
# hsp-4::gfp = hsp-4::gfp transcriptional reporter induction in C. elegans (UPR); type: in vivo; conditions: gut and hypodermis; plates containing 5 μg/ml tunicamycin
# Description: A 1.1 kilobase (Kb) fragment of C. elegans genomic DNA immediately 5′ of the predicted initiation ATG of hsp-4 was amplified by PCR and ligated in-frame with GFP in the plasmid pPD95.75 (gift of Andy Fire, Carnegie Institute of Washington). The hsp-4::gfp(zcIs4) V strain was generated by co-injecting the hsp-4::gfp clone with the lin-15 rescuing plasmid, pSK1 (Clark et al., “The Caenorhabditis elegans Locus Lin-15, a Negative Regulator of a Tyrosine Kinase Signaling Pathway, Encodes Two Different Proteins,” Genetics 137:987-997 (1994), which is hereby incorporated by reference in its entirety), into lin-15(n765ts) animals and then integrating the extrachromosomal array with ultraviolet/trimethylpsoralen (UV/TMP) treatment. The F2 progeny of ethylmethane sulphonate (EMS)-treated hsp-4::gfp(zcIs4)V animals were screened for mutants with high levels of GFP expression to identify mutations that constitutively induce the UPR. Several mutations were recovered, including upr-1(zc6)X, which induced a high level of GFP expression in the posterior gut. To isolate mutations that blocked hsp-4::gfp induction, the F2 progeny of EMS-treated hsp-4::gfp(zcIs4) V; upr-1(zc6)X animals were screened for mutants with a reduced GFP signal. The mutations were mapped using standard methods. […]
# XBP-1 [2] = assay: Immunoblot of FLAG-tagged XBP-1 in transfected HEK 293T cells; type: cell-based, human; conditions: HEK 293T cells transfected with XBP-1^up
# Method: as §1, §2
# XBP-1 [3] = assay: Metabolic pulse labelling and immunoprecipitation of endogenous XBP-1 proteins; type: cell-based, mouse
# Method: Mouse embryonic fibroblasts and ES cells lacking IRE1 activity (IRE1α−/− or IRE1α, IRE1β−/−) and PERK−/−fibroblasts were cultured as previously described (Harding et al., “Regulated Translation Initiation Controls Stress-Induced Gene Expression in Mammalian Cells,” Mol. Cell 6:1099-1108 (2000); and Urano et al., “Coupling of Stress in the Endoplasmic Reticulum to Activation of JNK Protein Kinases by Transmembrane Protein Kinase IRE1,” Science 287:664-666 (2000), which are hereby incorporated by reference in their entirety). Cells were treated with tunicamycin (2.5 μg/ml, Calbiochem), thapsigargin (100 nM, Sigma), dithiothreitol (2 mM, Sigma) or the proteasome inhibitor MG132 (25 μM, Calbiochem) as indicated. To prepare B-cell blasts, cells were teased from crushed adult mouse spleen and cultured in the presence of 25 μg/ml E. coli lipopolysaccharide.
# Newly synthesized proteins were labeled in vivo with ^35S-methionine and ^35S-cysteine (500 μCi/ml, Translabel, ICN Biochemicals). After removal of the labeling media cells were washed and incubated in complete media for cold-chase. […] Incorporation of radiolabel was quantified by phosphoimager analysis. In calculating the relative synthesis rates of 54 kDa XBP-1 and 33 kDa XBP-1 the relative incorporation of label was corrected for differences in the content of methionine (7:6) and cysteine (4:3) predicted for the two proteins. […]
compound,measurement,setting,value
bacterial lipopolysaccharide,induction of 54 kDa XBP-1 protein,XBP-1 [1],induced
tunicamycin,hsp-4::gfp expression,hsp-4::gfp,strongly induced
same,expression of FLAG-tagged 54 kDa XBP-1 protein,XBP-1 [2],expressed high levels of FLAG-tagged 54 kDa protein
same,accumulation of endogenous 54 kDa XBP-1,"XBP-1 [3]; pulse-labeled wildtype cells, tunicamycin 2.5 μg/ml",accumulated to high levels
"CC(C)C[C@@H](C=O)NC(=O)[C@H](CC(C)C)NC(=O)[C@H](CC(C)C)NC(=O)OCc1ccccc1 [proteasome inhibitor, MG132] (Cbz-Leu-Leu-Leu-aldehyde)",levels of 33 kDa XBP-1 protein,"XBP-1 [3]; mouse fibroblasts, MG132 25 μM",increased further
